Read-outs that look alike come from different tables or passages of the source.

The target in data set [1] is T1, rat-alpha7-nAChR (Rattus norvegicus, UniProt Q05941).
T1 construct: expressed in transfected cells
The data set can be described thus: functional FLIPR assay, alpha7 nAChR stably expressed in GH4C1 cells. Type of data set: cell-based.
From the text: Rat GH4C1 cells were then transfected with the rat receptor, cloned and analyzed for functional alpha7 nicotinic receptor expression employing a FLIPR assay to measure changes in intracellular calcium concentrations.
The FLIPR system allows the measurements of real time Ca^2+-concentration changes in living cells using a Ca^2+ sensitive fluorescence dye (such as Fluo4). This instrument enables the screening for agonists and antagonists for alpha 7 nAChR channels stably expressed in GH4C1 cells.
GH4C1 cells stably transfected with rat-alpha7-nAChR (see above) were used. These cells are poorly adherent and therefore pretreatment of flasks and plates with poly-D-lysine was carried out. Cells are grown in 150 cm^2 T-flasks, filled with 30 ml of medium at 37° C. and 5% CO2.
EC50 and IC50 values were calculated using the IDBS XLfit4.1 software package employing a sigmoidal concentration-response (variable slope) equation:

A short description of data set [2]: metabolite profile in dog plasma by LC/MS. Conditions: dog plasma after single […] IV or 7.6 mg/kg PO dose of parent. Type of data set: in vivo. As for the experimental part: (§1) Rat plasma samples from single 6.7 mg/kg IV at 0, 10 min and 20.5 mg/kg IV at 0, 0.5, 4 hr post dosing; dog plasma samples from single 1.5 mg/kg IV at 0, 0.167, 1, 6 hr and 7.6 mg/kg PO at 0, 0.5, 2, 6 hr post dosing were analyzed by LC/MS. A standard of the parent compound was analyzed by LC/MS and there was no impurity detected.

Data set [3] in a line: metabolite profile in rat plasma by LC/MS. The class given is in vivo. As to conditions: rat plasma after single 6.7 or 20.5 mg/kg IV dose of parent. As for the experimental part: as §1
In rat plasma, a compound of formula I was the predominant compound-related material while metabolites were detected at very low levels. […] (See FIGS. 1 and 2; for compound I′ n=1, R^1=methyl, and R^2═H)

[4] abbreviates: functional FLIPR primary screening assay, GH4C1 cell line expressing α7 nAChR, read-out: Alpha7 EC50.

T1 sequence (Q05941 23-502): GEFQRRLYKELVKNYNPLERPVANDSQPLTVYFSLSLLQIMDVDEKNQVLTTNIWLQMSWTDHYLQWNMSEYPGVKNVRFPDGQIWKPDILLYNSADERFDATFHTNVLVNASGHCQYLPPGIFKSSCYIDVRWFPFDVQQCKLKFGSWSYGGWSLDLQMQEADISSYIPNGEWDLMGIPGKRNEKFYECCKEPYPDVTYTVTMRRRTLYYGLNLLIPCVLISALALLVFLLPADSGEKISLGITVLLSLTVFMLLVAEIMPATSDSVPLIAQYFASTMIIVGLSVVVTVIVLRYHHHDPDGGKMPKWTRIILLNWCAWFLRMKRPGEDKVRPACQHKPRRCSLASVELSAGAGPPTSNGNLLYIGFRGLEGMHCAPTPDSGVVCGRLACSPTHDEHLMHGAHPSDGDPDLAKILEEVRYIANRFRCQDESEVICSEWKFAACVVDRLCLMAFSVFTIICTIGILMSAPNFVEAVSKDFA

Take `CC(=O)N1CCCC(CCCCC(=O)Nc2cc(-c3ccc(O)cc3)[nH]n2)CC1` (stereo not drawn): the EC50 (in general, the midpoint of the concentration-response curve) in data set [1] (setting [4]) is 1 µM.
Take `COc1ccc(C2CC(NC(=O)CCCCN3CCCNCC3)NN2)cc1` (stereo not drawn): the EC50 in data set [1] (setting [4]) was determined as 6.9 µM.
For `CC(=O)N1CCCN(CCCCC(=O)Nc2cc(-c3ccc(O)cc3)n[nH]2)CC1` [Compound I-1], the “compound-related material detected in dog plasma” value in data set [2] was “very minor metabolite”. In data set [3], the “compound-related material detected in rat plasma” value was “detected as metabolites”.
Turning to `CC(=O)N1CCCN(CCCCC(=O)Nc2cc(-c3ccc(OS(=O)(=O)O)cc3)[nH]n2)CC1` [Compound I-2], the “compound-related material detected in rat plasma” value in data set [3] is reported as “detected as metabolites”.
As for `C[N+]1(C)CCN(c2ccccc2)CC1` [DMPP, reference compound], the EC50 in data set [1] (alpha7 nAChR stably expressed in GH4C1 cells, functional FLIPR assay, agonist validation, read-out: EC50) amounted to 0.98 ± 0.47 µM.

The values above are taken from patent US20090181952A1 (Wyeth, priority 2008, published 2009).
